Here are results for 31 molecules from patent publication US20240262812A1, “N-SUBSTITUTED PHENYLSULFONAMIDE COMPOUND AND USE THEREOF” (Shanghai Leado Pharmatech Co., Ltd., priority 2021, published 2024).

The structures appear in SMILES notation.

The target in this test is T1, mTRPA1 (Mus musculus, UniProt Q8BLA8).
T1 construct: expressed in transfected cells
As to the kind of experiment: IonWorks Barracuda (IWB) automated patch clamp, TRPA1 inhibitory activity. The format is cell-based. The conditions noted are these: HEK293 cells stably expressing mTRPA1, current induced by AITC, amplitude at +100 mV; read-out: IC50 (inhibition activity on TRPA1). Here is the method:
In this example, the inhibitory activity of the compounds prepared in some examples of the present invention on transient receptor potential channel protein ankyrin 1 (TRPA1) was tested. Among them, compound of formula A (WO2010075353) was used as the positive control compound: […]
Test method using IonWorks Barracuda (IWB) automated patch clamp detection: HEK293 cells stably expressing mTRPA1 were placed in the T175 culture flask with DMEM medium containing 15 µg/mL Blasticidin S HCl, 200 µg/mL Hygromycin B and 10% FBS, and cultured in 37° C., 5% CO2 incubator. When the cell density reached about 80%, the culture medium was removed, washed once with phosphate buffered saline (PBS) without calcium and magnesium. 3 mL of Trypsin was added to digest for 2 min, 7 mL of culture solution was added to terminate the digestion. The cells were collected to 15 mL centrifuge tube and centrifuged at 800 rpm for 3 min. After the supernatant was removed, the cells were added to appropriate volume of extracellular fluid for re-suspending, and the cell density was controlled at 2-3×10^6/mL for use in IWB experiment. Extracellular fluid formulation (in mM): 140 NaCl, 5 KCl, 1 MgCl2, 10 HEPES, 0.5 EGTA, 10 Glucose (pH 7.4); intracellular fluid formulation (in mM): 140 CsCl, 10 HEPES, 5 EGTA, 0.1 CaCl2, 1 MgCl2 (pH 7.2). 28 mg/mL of amphotericin B was freshly prepared with DMSO on the day of experiment, and then final concentration of 0.1 mg/mL was prepared with intracellular fluid.
Population patch clamp (PPC) plate was used in IWB experiment. The entire detection process was automatically carried out by the instrument, that is, extracellular fluid was added into 384 wells of PPC plate, and after intracellular fluid was added under PPC plate (in plenum), 6 µL of cell fluid was added for sealing test, and finally the intracellular fluid in plenum was replaced with intracellular fluid containing amphotericin B to establish a whole-cell recording mode after perforating sealed cells. The sampling frequency for recording TPRA1 current was 10 kHz, the cells were clamped at 0 mV, the voltage stimulation command (channel protocol) was a ramp voltage from −100 mV to +100 mV for 300 ms. This voltage stimulation was applied every 10 s, mTRPA1 current was induced by 300 µM AITC.
Data recording and current amplitude measurement export were carried out by IWB software (version 2.5.3, Molecular Devices Corporation, Union City, CA). No statistics was recorded for holes with sealing impedance lower than 20 MΩ. The original current data was corrected by software for leak subtraction. TRPA1 current amplitude was measured at +100 mV. […] If IC50 value of HC030031 exceeded 3 times of the average IC50 value previously obtained on each plate, it would be re-tested. The dose-effect curve of compounds and IC50 were fitted and calculated by GraphPad Prism 5.02 (GraphPad Software, San Diego, CA).
Some compounds of the present invention were subjected to IC50 inhibition activity test using the IonWorks Barracuda (IWB) automated patch clamp detection method.
In general terms: The patch-clamp technique gives a direct electrical read-out from membranes.

T1 sequence (Q8BLA8 whole entry): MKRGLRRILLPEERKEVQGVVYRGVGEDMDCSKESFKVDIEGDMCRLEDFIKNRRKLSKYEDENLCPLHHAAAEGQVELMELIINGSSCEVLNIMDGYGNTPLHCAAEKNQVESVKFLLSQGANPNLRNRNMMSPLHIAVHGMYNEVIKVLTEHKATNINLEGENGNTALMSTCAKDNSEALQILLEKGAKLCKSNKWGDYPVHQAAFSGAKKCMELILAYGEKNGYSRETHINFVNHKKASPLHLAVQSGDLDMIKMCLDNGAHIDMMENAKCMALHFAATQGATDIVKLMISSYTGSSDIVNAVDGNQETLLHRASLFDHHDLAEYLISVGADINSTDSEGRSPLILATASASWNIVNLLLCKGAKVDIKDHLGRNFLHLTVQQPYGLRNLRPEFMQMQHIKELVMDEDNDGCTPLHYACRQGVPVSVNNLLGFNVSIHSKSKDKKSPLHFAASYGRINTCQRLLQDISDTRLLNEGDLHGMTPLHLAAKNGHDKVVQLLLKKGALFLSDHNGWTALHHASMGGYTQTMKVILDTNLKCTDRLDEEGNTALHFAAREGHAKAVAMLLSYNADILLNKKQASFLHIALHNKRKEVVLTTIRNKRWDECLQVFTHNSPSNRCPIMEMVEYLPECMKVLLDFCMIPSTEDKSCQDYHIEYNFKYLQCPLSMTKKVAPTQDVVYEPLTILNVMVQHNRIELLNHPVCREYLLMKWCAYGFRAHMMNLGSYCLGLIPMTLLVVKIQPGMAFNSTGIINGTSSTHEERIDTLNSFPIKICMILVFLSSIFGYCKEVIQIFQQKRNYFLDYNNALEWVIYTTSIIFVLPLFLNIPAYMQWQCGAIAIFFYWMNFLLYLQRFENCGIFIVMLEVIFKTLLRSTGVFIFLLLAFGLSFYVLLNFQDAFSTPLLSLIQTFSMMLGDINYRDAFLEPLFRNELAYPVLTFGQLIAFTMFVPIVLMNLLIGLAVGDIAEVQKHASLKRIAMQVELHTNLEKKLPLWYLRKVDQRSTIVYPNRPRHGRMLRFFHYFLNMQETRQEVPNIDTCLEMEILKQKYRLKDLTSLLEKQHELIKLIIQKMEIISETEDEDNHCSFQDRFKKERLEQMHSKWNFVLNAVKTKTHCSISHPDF

Regarding `CNC(C)c1ccc(NS(=O)(=O)c2ccccc2)c(-c2ccco2)c1` (stereo not shown) [IV-1, N-(2-(furan-2-yl)-4-(1-(methylamino)ethyl)phenyl)benzenesulfonamide], the half-maximal inhibitory concentration (IC50) was in the range of 1 to 5 µM.
On to `CNCc1ccc(NS(=O)(=O)c2cccnc2)c(-c2ccco2)c1` [IA-31, N-(2-(furan-2-yl)-4-((methylamino)methyl)phenyl)pyridine-3-sulfonamide], for which the 50% inhibitory concentration (IC50) was in the range of 5 to 10 µM.
With `CC(N)c1ccc(-c2ccco2)c(NS(=O)(=O)c2ccccc2)c1` (stereo not shown) [IU-9, N-(5-(1-aminoethyl)-2-(furan-2-yl)phenyl)benzenesulfonamide] the figure was less than 1 µM; with `NC(Cc1ccccc1)c1ccc(NS(=O)(=O)c2ccccc2)c(-c2ccco2)c1` (stereo not shown) [IU-8, N-(4-(1-amino-2-phenylethyl)-2-(furan-2-yl)phenyl)benzenesulfonamide], 10 to 20 µM; with `NCc1ccc(NS(=O)(=O)c2ccccc2)c(-c2ccco2)c1` [ID-4, N-(4-(aminomethyl)-2-(furan-2-yl)phenyl)benzenesulfonamide], 1 to 5 µM.
Turning to `CNCc1ccc(-c2c(C)nn(C)c2C)c(NS(=O)(=O)c2ccccc2)c1` [IA-57, N-(5-((methylamino)methyl)-2-(1,3,5-trimethyl-1H-pyrazole-4-yl)phenyl) benzenesulfonamide], the IC50 lay in the range of 20 to 50 µM.
Consider `CNCc1ccc(-c2ccco2)c(NS(=O)(=O)c2cccc(F)c2)c1` [IA-3, 3-Fluoro-N-(2-(furan-2-yl)-5-((methylamino)methyl)phenyl)benzenesulfonamide], for which the half-inhibitory concentration (IC50) lay within 1 to 5 µM.
`CNCc1ccc(NS(=O)(=O)c2cccs2)c(-c2ccco2)c1` [IA-29, N-(2-(furan-2-yl)-4-((methylamino)methyl)phenyl)thiophene-2-sulfonamide]: the IC50 was less than 1 µM.
The same measure for `CNCc1ccc(-c2ccoc2)c(NS(=O)(=O)c2ccccc2)c1` [IA-42, N-(2-(furan-3-yl)-5-((methylamino)methyl)phenyl)benzenesulfonamide]: 1 to 5 µM; for `CNCc1ccc(-c2ccco2)c(NS(=O)(=O)Cc2ccccc2)c1` [IA-24, N-(2-(furan-2-yl)-5-((methylamino)methyl)phenyl)-1-phenylmethanesulfonamide]: 20 to 50 µM; for `CNCc1ccc(-c2ccco2)c(NS(=O)(=O)c2ccccc2F)c1` [IA-2, 2-Fluoro-N-(2-(furan-2-yl)-5-((methylamino)methyl)phenyl)benzenesulfonamide]: 1 to 5 µM.
With `CC(=O)NCc1ccc(NS(=O)(=O)c2ccsc2)c(-c2ccco2)c1` [IE, N-(3-(furan-2-yl)-4-(thiophene-3-sulfonamide)benzyl)acetamide] the figure was 20 to 50 µM; with `CNC(C)c1ccc(-c2ccco2)c(NS(=O)(=O)c2ccccc2)c1` (stereo not shown) [IV-2, N-(2-(furan-2-yl)-5-(1-(methylamino)ethyl)phenyl)benzenesulfonamide], 1 to 5 µM; with `NCc1ccc(-c2cc[nH]n2)c(NS(=O)(=O)c2ccsc2)c1` [ID-8, N-(5-(aminomethyl)-2-(1H-pyrazole-3-yl)phenyl)thiophene-3-sulfonamide], 1 to 5 µM.
`CNCc1ccc(-c2ccc[nH]2)c(NS(=O)(=O)c2ccccc2)c1` [IA-50, N-(5-((methylamino)methyl)-2-(1H-pyrrole-2-yl)phenyl)benzenesulfonamide]: the IC50 fell in the range of 20 to 50 µM.
The same measure for `CNCc1ccc(-c2ccco2)cc1NS(=O)(=O)c1ccccc1` [IA-40, N-(5-(furan-2-yl)-2-((methylamino)methyl)phenyl)benzenesulfonamide]: 50 to 100 µM; for `CCNCc1ccc(NS(=O)(=O)c2ccsc2)c(-c2ccco2)c1` [IA-32, N-(4-((ethylamino)methyl)-2-(furan-2-yl)phenyl)thiophene-3-sulfonamide]: less than 1 µM; for `CNCc1cc(NS(=O)(=O)c2ccccc2)cc(-c2ccco2)c1` [IA-39, N-(3-(furan-2-yl)-5-((methylamino)methyl)phenyl)benzenesulfonamide]: 20 to 50 µM.
As for `CNCc1ccc(-c2ccco2)c(NS(=O)(=O)c2ccc(Br)s2)c1` [IA-23, 5-Bromo-N-(2-(furan-2-yl)-5-((methylamino)methyl)phenyl)thiophene-2-sulfonamide], the IC50 is 10 to 20 µM.
On to `CCCC(N)c1ccc(NS(=O)(=O)c2ccccc2)c(-c2ccco2)c1` (stereo not shown) [IU-4, N-(4-(1-aminobutyl)-2-(furan-2-yl)phenyl)benzenesulfonamide], for which the IC50 was less than 1 µM.
For the molecule `O=S(=O)(Nc1cc(CNCC(F)(F)F)ccc1-c1ccco1)c1ccccc1` [IA-62], the half-inhibitory concentration (IC50) lay in the range of 50 to 100 µM.
Turning to `CC(N)c1ccc(NS(=O)(=O)c2ccccc2)c(-c2ccco2)c1` (stereo not shown) [IU-2, N-(4-(1-aminoethyl)-2-(furan-2-yl)phenyl)benzenesulfonamide], the IC50 lay within 1 to 5 µM.
Take `NC(c1ccccc1)c1ccc(NS(=O)(=O)c2ccccc2)c(-c2ccco2)c1` (stereo not shown) [IU-7, N-(4-(amino(phenyl)methyl)-2-(furan-2-yl)phenyl)benzenesulfonamide]: the IC50 fell in the range of 1 to 5 µM.
As for `CN(C)Cc1ccc(NS(=O)(=O)c2ccsc2)c(-c2ccco2)c1` [IJ-1, N-(4-((dimethylamino)methyl)-2-(furan-2-yl)phenyl)thiophene-3-sulfonamide], the half-maximal inhibitory concentration (IC50) lay within 1 to 5 µM.
Regarding `CNCc1ccc(-c2cn[nH]c2)c(NS(=O)(=O)c2ccccc2)c1` [IA-52], the IC50 lay within 20 to 50 µM.
With `CNCc1ccc(-c2ccco2)c(NS(=O)(=O)c2ccc(OC)cc2)c1` [IA-6, 4-Methoxy-N-(2-(furan-2-yl)-5-((methylamino)methyl)phenyl)benzenesulfonamide] the figure was 5 to 10 µM; with `CNCc1ccc(-c2cccs2)c(NS(=O)(=O)c2ccccc2)c1` [IA-46, N-(2-(thiophene-2-yl)-5-((methylamino)methyl)phenyl)benzenesulfonamide], 1 to 5 µM.
Take `O=S(=O)(Nc1cc(C2CCCN2)ccc1-c1ccco1)c1ccccc1` (stereo not shown) [IW, N-(2-(furan-2-yl)-5-(pyrrolidin-2-yl)phenyl)benzenesulfonamide]: the IC50 lay in the range of 1 to 5 µM.
On to `CNCc1ccc(-c2cccs2)c(NS(=O)(=O)c2ccsc2)c1` [IA-48, N-(2-(thiophene-2-yl)-5-((methylamino)methyl)phenyl)thiophene-3-sulfonamide], for which the half-inhibitory concentration (IC50) fell in the range of 1 to 5 µM.
On to `CNCc1ccc(-c2ccco2)c(NS(=O)(=O)c2ccc(C(F)(F)F)cc2)c1` [IA-13, 4-Trifluoromethyl-N-(2-(furan-2-yl)-5-((methylamino)methyl)phenyl)benzenesulfonamide], for which the half-inhibitory concentration (IC50) fell in the range of 10 to 20 µM.
Regarding `CNCc1ccc(-n2nccn2)c(NS(=O)(=O)c2ccccc2)c1` [IQ-3, N-(5-((methylamino)methyl)-2-(2H-1,2,3-triazol-2-yl)phenyl)benzenesulfonamide], the half-maximal inhibitory concentration (IC50) fell in the range of 1 to 5 µM.

In general, IC50 refers to the concentration at which inhibition is half-maximal.
